Laboratory results taken from ChEMBL document CHEMBL1132660, “Three-dimensional quantitative structure-activity relationship study on cyclic urea derivatives as HIV-1 protease inhibitors: application of comparative molecular field analysis” (J Med Chem, 1999).

Molecular target: Human immunodeficiency virus type 1 protease (Human immunodeficiency virus 1, UniProt Q72874)
Test: Inhibition of HIV-1 protease

Row | SMILES | Ki [nM]
1 | COc1cccc(N2C(=O)N(Cc3cccc(C(=O)Nc4ccccn4)c3)[C@H](Cc3ccccc3)[C@H](O)[C@@H](O)[C@H]2Cc2ccccc2)c1 | 0.047
2 | COc1cccc(N2C(=O)N(Cc3cccc(C(=O)Nc4cnccn4)c3)[C@H](Cc3ccccc3)[C@H](O)[C@@H](O)[C@H]2Cc2ccccc2)c1 | 0.038
3 | Nc1cccc(N2C(=O)N(Cc3cccc(C(=O)Nc4nc5ccccc5[nH]4)c3)[C@H](Cc3ccccc3)[C@H](O)[C@@H](O)[C@H]2Cc2ccccc2)c1 | 0.023
4 | Nc1cccc(N2C(=O)N(Cc3cccc(C(=O)Nc4ncc[nH]4)c3)[C@H](Cc3ccccc3)[C@H](O)[C@@H](O)[C@H]2Cc2ccccc2)c1 | 0.012
5 | Cc1ccc(NC(=O)c2cccc(CN3C(=O)N(c4cccc(N)c4)[C@H](Cc4ccccc4)[C@H](O)[C@@H](O)[C@H]3Cc3ccccc3)c2)nc1 | 0.075
6 | COc1cc(OC)cc(N2C(=O)N(Cc3cccc(C(=O)Nc4cnccn4)c3)[C@H](Cc3ccccc3)[C@H](O)[C@@H](O)[C@H]2Cc2ccccc2)c1 | 2.51
7 | CC(C)(C)CCN1C(=O)N(CCC(C)(C)C)[C@H](Cc2ccccc2)[C@H](O)[C@@H](O)[C@H]1Cc1ccccc1 | 36
8 | Nc1cccc(N2C(=O)N(Cc3cccc(C(=O)Nc4cnccn4)c3)[C@H](Cc3ccccc3)[C@H](O)[C@@H](O)[C@H]2Cc2ccccc2)c1 | 0.016
9 | COc1cccc(N2C(=O)N(Cc3cccc(C(=O)Nc4cccc(C)n4)c3)[C@H](Cc3ccccc3)[C@H](O)[C@@H](O)[C@H]2Cc2ccccc2)c1 | 0.053
10 | O=C(Nc1ccccn1)c1cccc(CN2C(=O)N(c3cccc([N+](=O)[O-])c3)[C@H](Cc3ccccc3)[C@H](O)[C@@H](O)[C@H]2Cc2ccccc2)c1 | 0.096
11 | COc1cc(OC)cc(N2C(=O)N(Cc3cccc(C(=O)Nc4ccccn4)c3)[C@H](Cc3ccccc3)[C@H](O)[C@@H](O)[C@H]2Cc2ccccc2)c1 | 0.86
12 | O=C(NCC1CC1)c1cccc(CN2C(=O)N(Cc3cccc(C(=O)NCC4CC4)c3)[C@H](Cc3ccccc3)[C@H](O)[C@@H](O)[C@H]2Cc2ccccc2)c1 | 0.741
13 | COc1cccc(N2C(=O)N(Cc3cccc(C(=O)Nc4ccc(C)cn4)c3)[C@H](Cc3ccccc3)[C@H](O)[C@@H](O)[C@H]2Cc2ccccc2)c1 | 0.069
14 | COc1cc(OC)cc(N2C(=O)N(Cc3cccc(C(=O)Nc4ccc(C)cn4)c3)[C@H](Cc3ccccc3)[C@H](O)[C@@H](O)[C@H]2Cc2ccccc2)c1 | 1.9
15 | O=C1N(Cc2ccc3ccccc3c2)[C@H](Cc2ccccc2)[C@H](O)[C@@H](O)[C@@H](Cc2ccccc2)N1C1CCCC1 | 0.28
16 | O=C(NCc1ccccc1)c1cccc(CN2C(=O)N(Cc3cccc(C(=O)NCc4ccccc4)c3)[C@H](Cc3ccccc3)[C@H](O)[C@@H](O)[C@H]2Cc2ccccc2)c1 | 0.43
17 | CC(C)(C)NC(=O)c1cccc(CN2C(=O)N(c3cccc(N)c3)[C@H](Cc3ccccc3)[C@H](O)[C@@H](O)[C@H]2Cc2ccccc2)c1 | 0.41
18 | COc1cc(OC)cc(N2C(=O)N(Cc3cccc(C(=O)Nc4cccc(C)n4)c3)[C@H](Cc3ccccc3)[C@H](O)[C@@H](O)[C@H]2Cc2ccccc2)c1 | 0.7
19 | N#CCNC(=O)c1cccc(CN2C(=O)N(C(=O)CNC(=O)c3ccccc3)[C@H](Cc3ccccc3)[C@H](O)[C@@H](O)[C@H]2Cc2ccccc2)c1 | 0.024
